{"source": "patent US20230103142A1", "about": "“SMALL MOLECULE REGULATORS OF NOTCH1 AND USES THEREOF” (THE PENN STATE RESEARCH FOUNDATION, priority 2020, published 2023)", "key": {"[1]": {"tested_on": "Notch1/HCT116 clone C4", "experiment": "colony forming assay", "method": "(§2) Six biological replicates used for MTT assays and it was repeated twice for each experiment. […] The anchorage-independent growth assay was performed and repeated in triplicate."}, "[2]": {"tested_on": "SW-620 cells", "settings": "read-out: IC50 cell viability", "method": "as §2"}, "[3]": {"tested_on": "Bladder Cancer cells (TCCSUP and HT1376)", "experiment": "MTT assay in bladder cancer cells with low basal Notch1", "settings": "low basal level of Notch1, 24 h", "from_the_text": "Six biological replicates used for MTT assays and it was repeated twice for each experiment. Data are presented, from independent experiments, as the mean±standard deviation (SEM/SD). The Student's t-test was used to calculate the statistical significance between the vehicle and treatment at each concentration. *p<0.05, **p<0.01 and ***p<0.001. […] Six biological replicates used for MTT assays and it was repeated twice for each experiment. Data are presented, from independent experiments, as the mean±standard deviation (SEM/SD). The Student's t-test was used to calculate the statistical significance between the vehicle and treatment at each concentration. *p<0.05 and # Not significant.\nSix biological replicates used for MTT assays and it was repeated twice for each experiment."}, "[4]": {"tested_on": "Notch1/HCT116 clone C5", "experiment": "colony forming assay", "method": "as §2"}, "[5]": {"tested_on": "pCMV/HCT116 xenografts", "experiment": "xenograft tumor growth study", "settings": "5 mg/kg intraperitoneally thrice a week, 4 weeks", "method": "(§3) Xenograft studies: Six- to eight-week-old BALB/c athymic nude mice (nu/nu) (Jackson Laboratory: Bar Harbor, Me., USA) were subcutaneously injected with pCMV/HCT116 and C4 (1×10^6 cells). The monitoring and measurements were performed."}, "[6]": {"tested_on": "Notch1/HCT116 (C4) xenografts", "experiment": "xenograft tumor growth study", "settings": "5 mg/kg intraperitoneally thrice a week, 4 weeks", "method": "as §3"}, "[7]": {"tested_on": "pCMV/HCT116 cells", "experiment": "colony forming assay", "method": "as §2"}, "[8]": {"tested_on": "Notch3 in HCT116 cells", "experiment": "immunoblot with Notch3 antibody", "settings": "HCT116, IC50 concentration, 12 h and 24 h", "from_the_text": "(§4) Data are presented as the mean±standard deviation (SEM/SD) of three independent experiments. The Student's t-test was used to calculate the statistical significance between the vehicle and treatment at each concentration. *p<0.05 and **p<0.01."}, "[9]": {"tested_on": "MDA-MB-231 TNBC cells", "experiment": "cell viability assay", "assay_type": "cell-based", "settings": "for IC50: read-out: IC50 cell growth", "protocol": "Synergistic effects of combinations were calculated via isobologram analysis."}, "[10]": {"tested_on": "Notch2 in HCT116 cells", "experiment": "immunoblot with Notch2 antibody", "settings": "HCT116, IC50 concentration, 12 h and 24 h", "from_the_text": "as §4"}, "[11]": {"tested_on": "Notch1/HCT116 clone C4", "settings": "C4, IC50 dose, 24 h", "protocol": "(§1) Cell invasion and migration assays: The invasive capability of pCMV/HCT116 and Notch1/HCT116 was evaluated in Boyden chambers, as described in earlier studies. HCT 116, SW-620, pCMV/HCT116, and Notch1/HCT116 cells were analyzed for migration capability with protocols already described in an earlier study. All experiments were performed in triplicate to achieve statistical relevance."}, "[12]": {"tested_on": "HCT116 cells", "settings": "HCT116, 24 h", "protocol": "as §1"}, "[13]": {"tested_on": "Notch1/HCT116 clone C5", "settings": "C5, IC50 dose, 24 h", "protocol": "as §1"}, "[14]": {"tested_on": "SW620 cells", "settings": "SW620, 24 h", "protocol": "as §1"}, "[15]": {"tested_on": "pCMV/HCT116 cells", "settings": "pCMV/HCT116, IC50 dose, 24 h", "protocol": "as §1"}}, "note": "Where two headings read alike, the source gives them in different places.", "data": [{"compound": "CC1=C(CO)C(=O)O[C@@H]([C@@H](C)[C@H]2CC[C@H]3[C@@H]4C[C@H]5O[C@]56[C@@H](OC(=O)c5ccccn5)C=CC(=O)[C@]6(C)[C@H]4CC[C@]23C)C1", "note": "[ASR490, Pyridine-2-carboxylic acid {17-[1-(5-hydroxymethyl-4-methyl-6-oxo-3,6-dihydro-2H-pyran-2-yl)-ethyl]-10,13-dimethyl-1-oxo, 4,6,7,8,9,10,11,12,13,14,15,16,17-tetradecahydro-20-oxacyclopropa[5,6]cyclopenta[a]phenanthren-4-yl}ester]", "values": [{"measurement": "reduction of colony forming ability", "setting": "[1]", "value": 38, "unit": "%"}, {"measurement": "IC50", "setting": "[2]; SW-620, 24-h", "value": 1200, "unit": "nM"}, {"measurement": "IC50", "setting": "[2]; SW-620, 48-h", "value": 850, "unit": "nM"}, {"measurement": "growth of bladder cancer cells", "setting": "[3]", "value": "failed inhibit their growth"}, {"measurement": "reduction of colony forming ability", "setting": "[4]", "value": 26.66, "unit": "%"}, {"measurement": "tumor growth", "setting": "[5]", "value": "significant tumor growth inhibition"}, {"measurement": "tumor growth", "setting": "[6]", "value": "significant tumor growth inhibition"}, {"measurement": "reduction of colony forming ability", "setting": "[7]", "value": 22.3, "unit": "%"}, {"measurement": "Notch3 expression", "setting": "[8]", "value": "no change"}, {"measurement": "IC50", "setting": "[9]; MDA-MB-231, 24 h", "value": 760, "unit": "nM"}, {"measurement": "IC50", "setting": "[9]; MDA-MB-231, 48 h", "value": 444, "unit": "nM"}, {"measurement": "inhibition of proliferation by combination", "setting": "[9]; ⅕th of IC50 of ASR490 (152 nM) in combination with 1/20th of IC50 of DOX (46.4 nM)", "value": 30, "unit": "%"}, {"measurement": "growth inhibition alone", "setting": "[9]; ⅕th of IC50 of ASR490 alone", "value": "did not inhibit the growth"}, {"measurement": "Notch2 expression", "setting": "[10]", "value": "no change"}, {"measurement": "decline in invasive capacity", "setting": "[11]", "value": 60.75, "unit": "%"}, {"measurement": "inhibition of migratory capability", "setting": "[12]", "value": 25.18, "unit": "%"}, {"measurement": "decline in invasive capacity", "setting": "[13]", "value": 65.5, "unit": "%"}, {"measurement": "inhibition of migratory capability", "setting": "[14]", "value": 32.36, "unit": "%"}, {"measurement": "decline in invasive capacity", "setting": "[15]", "value": 40, "unit": "%"}, {"measurement": "decline in migratory potential", "setting": "[15]", "value": 25.11, "unit": "%"}]}]}
